The compounds below were run against T1, Recombinant human liver GK1 (GST-GK) (Homo sapiens, UniProt P35557) (assay: Glucokinase in vitro assay (G6PDH-coupled NADH generation, OD340)). Settings: 30 uM test compound, 5 mM D-glucose.
T1 construct: made in house; host or cells: E. coli
T1 sequence (P35557 1-466 isoform P35557-2): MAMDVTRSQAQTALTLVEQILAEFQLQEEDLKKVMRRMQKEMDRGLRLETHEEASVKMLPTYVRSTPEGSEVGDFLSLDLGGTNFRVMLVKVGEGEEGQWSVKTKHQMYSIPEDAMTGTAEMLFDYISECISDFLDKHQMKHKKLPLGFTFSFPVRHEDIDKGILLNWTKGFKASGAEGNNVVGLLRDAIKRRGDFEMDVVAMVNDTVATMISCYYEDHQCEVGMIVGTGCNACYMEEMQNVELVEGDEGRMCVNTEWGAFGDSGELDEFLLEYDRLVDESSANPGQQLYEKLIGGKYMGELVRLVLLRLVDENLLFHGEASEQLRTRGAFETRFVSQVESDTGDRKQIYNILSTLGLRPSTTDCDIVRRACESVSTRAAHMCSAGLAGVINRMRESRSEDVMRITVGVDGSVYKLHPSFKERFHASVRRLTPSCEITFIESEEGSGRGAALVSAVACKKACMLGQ
Format: biochemical
How it was run: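 Activation readout is SC1.5, the activator concentration raising GK rate (OD340/min) 50% above 10% DMSO controls. The coupled reaction used GST-GK1 from E. coli, 5 mM glucose, 1 mM ATP, 1.8 mM NAD and 25 mM Hepes pH 7.1 at 30° C. Enzyme was added after a 10 min compound pre-incubation.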

Cn1nc(NC(=O)C(CC2CCCC2)n2ncc(Oc3ccccc3C(F)(F)F)cc2=O)cc1C(F)(F)F (stereo not shown) [Example 45, 3-Cyclopentyl-N-(1-methyl-5-trifluoromethyl-1H-pyrazol-3-yl)-2-[6-oxo-4-(2-trifluoromethyl-phenoxy)-6H-pyridazin-1-yl]-propionamide] was tested, and the “fold activation @ 30 uM” value was 1.15 fold.

Same assay, conditions: 5 mM D-glucose, 30° C., pH 7.1, 10% DMSO

Compared with CC(C)(O)Cn1ccc(NC(=O)C(CC2CCCC2)n2ncc(Oc3cccc4ncccc34)cc2=O)n1 (stereo not shown) [Example 38, 3-Cyclopentyl-N-[1-(2-hydroxy-2-methyl-propyl)-1H-pyrazol-3-yl]-2-[6-oxo-4-(quinolin-5-yloxy)-6H-pyridazin-1-yl]-propionamide], CC(C)(O)Cn1ccc(NC(=O)C(CC2CCCC2)n2ncc(Oc3cccc4cccnc34)cc2=O)n1 (stereo not shown) [Example 39, 3-Cyclopentyl-N-[1-(2-hydroxy-2-methyl-propyl)-1H-pyrazol-3-yl]-2-[6-oxo-4-(quinolin-8-yloxy)-6H-pyridazin-1-yl]-propionamide] is 1.6-fold lower in “SC1.5 average (concentration of activator that produced a 50% increase in the activity of GK)” value: 0.776 µM for the first, 0.499 µM for the second.

Compared with CC(=O)c1ccccc1Oc1cnn(C(CC2CCCC2)C(=O)Nc2ccn(CC(C)(C)O)n2)c(=O)c1 (stereo not shown) [Example 40, 2-[4-(2-Acetyl-phenoxy)-6-oxo-6H-pyridazin-1-yl]-3-cyclopentyl-N-[1-(2-hydroxy-2-methyl-propyl)-1H-pyrazol-3-yl]-propionamide], CC(C)(O)Cn1ccc(NC(=O)C(CC2CCCC2)n2ncc(Oc3ccccc3C(=O)N3CCCC3)cc2=O)n1 (stereo not shown) [Example 41, 3-Cyclopentyl-N-[1-(2-hydroxy-2-methyl-propyl)-1H-pyrazol-3-yl]-2-{6-oxo-4-[2-(pyrrolidine-1-carbonyl)-phenoxy]-6H-pyridazin-1-yl}-propionamide] is 37-fold higher in “SC1.5 average (concentration of activator that produced a 50% increase in the activity of GK)” value: 0.228 µM for the first, 8.414 µM for the second.

First: CC(C)CC(C(=O)Nc1ccn(CC(C)(C)O)n1)n1ncc(Oc2c(F)cccc2F)cc1=O (stereo not shown) [Example 42, 2-[4-(2,6-Difluoro-phenoxy)-6-oxo-6H-pyridazin-1-yl]-4-methyl-pentanoic acid [1-(2-hydroxy-2-methyl-propyl)-1H-pyrazol-3-yl]-amide]
Second: CC(C)C[C@@H](C(=O)Nc1ccn(CC(C)(C)O)n1)n1ncc(Oc2c(F)cccc2F)cc1=O [Example 42A, (S)-2-[4-(2,6-Difluoro-phenoxy)-6-oxo-6H-pyridazin-1-yl]-4-methyl-pentanoic acid [1-(2-hydroxy-2-methyl-propyl)-1H-pyrazol-3-yl]-amide]
The “SC1.5 average (concentration of activator that produced a 50% increase in the activity of GK)” value of the first is 2.1-fold higher: 0.349 µM for the first, 0.17 µM for the second.

Compared with CC(C)C[C@H](C(=O)Nc1ccn(CC(C)(C)O)n1)n1ncc(Oc2c(F)cccc2F)cc1=O [Example 42B, (R)-2-[4-(2,6-Difluoro-phenoxy)-6-oxo-6H-pyridazin-1-yl]-4-methyl-pentanoic acid [1-(2-hydroxy-2-methyl-propyl)-1H-pyrazol-3-yl]-amide], CCC(CC)CC(C(=O)Nc1ccn(CC(C)(C)O)n1)n1ncc(Oc2c(F)cccc2F)cc1=O (stereo not shown) [Example 52, 2-[4-(2,6-Difluoro-phenoxy)-6-oxo-6H-pyridazin-1-yl]-4-ethyl-hexanoic acid [1-(2-hydroxy-2-methyl-propyl)-1H-pyrazol-3-yl]-amide] is 13-fold lower in “SC1.5 average (concentration of activator that produced a 50% increase in the activity of GK)” value: 5.981 µM for the first, 0.456 µM for the second.

Compared with CC(C)(O)Cn1ccc(NC(=O)C(CC2CCOCC2)n2ncc(Oc3c(F)cccc3F)cc2=O)n1 (stereo not shown) [Example 43, 2-[4-(2,6-Difluoro-phenoxy)-6-oxo-6H-pyridazin-1-yl]-N-[1-(2-hydroxy-2-methyl-propyl)-1H-pyrazol-3-yl]-3-(tetrahydro-pyran-4-yl)-propionamide], CC(C)(O)Cn1ccc(NC(=O)[C@H](CC2CCOCC2)n2ncc(Oc3c(F)cccc3F)cc2=O)n1 [Example 43A, (S)-2-[4-(2,6-Difluoro-phenoxy)-6-oxo-6H-pyridazin-1-yl]-N-[1-(2-hydroxy-2-methyl-propyl)-1H-pyrazol-3-yl]-3-(tetrahydro-pyran-4-yl)-propionamide] is 1.6-fold lower in “SC1.5 average (concentration of activator that produced a 50% increase in the activity of GK)” value: 0.232 µM for the first, 0.148 µM for the second.

First: CC(C)(O)Cn1ccc(NC(=O)[C@@H](CC2CCOCC2)n2ncc(Oc3c(F)cccc3F)cc2=O)n1 [Example 43B, (R)-2-[4-(2,6-Difluoro-phenoxy)-6-oxo-6H-pyridazin-1-yl]-N-[1-(2-hydroxy-2-methyl-propyl)-1H-pyrazol-3-yl]-3-(tetrahydro-pyran-4-yl)-propionamide]
Second: CC(C)(O)Cn1ccc(NC(=O)C(CC2CCC2)n2ncc(Oc3c(F)cccc3F)cc2=O)n1 (stereo not shown) [Example 49, 3-Cyclobutyl-2-[4-(2,6-difluoro-phenoxy)-6-oxo-6H-pyridazin-1-yl]-N-[1-(2-hydroxy-2-methyl-propyl)-1H-pyrazol-3-yl]-propionamide]
The “SC1.5 average (concentration of activator that produced a 50% increase in the activity of GK)” value of the first is 25-fold higher: 7.536 µM for the first, 0.305 µM for the second.

Compared with CC(C)(O)Cn1ccc(NC(=O)C(Cc2ccccc2)n2ncc(Oc3c(F)cccc3F)cc2=O)n1 (stereo not shown) [Example 44, 2-[4-(2,6-Difluoro-phenoxy)-6-oxo-6H-pyridazin-1-yl]-N-[1-(2-hydroxy-2-methyl-propyl)-1H-pyrazol-3-yl]-3-phenyl-propionamide], CC(C)(O)Cn1ccc(NC(=O)C(Cc2c(F)cccc2F)n2ncc(Oc3c(F)cccc3F)cc2=O)n1 (stereo not shown) [Example 50, 2-[4-(2,6-Difluoro-phenoxy)-6-oxo-6H-pyridazin-1-yl]-3-(2,6-difluoro-phenyl)-N-[1-(2-hydroxy-2-methyl-propyl)-1H-pyrazol-3-yl]-propionamide] is 2.2-fold lower in “SC1.5 average (concentration of activator that produced a 50% increase in the activity of GK)” value: 1.032 µM for the first, 0.466 µM for the second.

CC(C)(O)Cn1ccc(NC(=O)C(CC2CCCC2)n2ncc(Cc3ccccc3C(F)(F)F)cc2=O)n1 (stereo not shown) [Example 46, 3-Cyclopentyl-N-[1-(2-hydroxy-2-methyl-propyl)-1H-pyrazol-3-yl]-2-[6-oxo-4-(2-trifluoromethyl-benzyl)-6H-pyridazin-1-yl]-propionamide] and CC(C)(O)Cn1ccc(NC(=O)C(CC2CCCC2)n2ncc(Cc3cccc(C(F)(F)F)c3)cc2=O)n1 (stereo not shown) [Example 47, 3-Cyclopentyl-N-[1-(2-hydroxy-2-methyl-propyl)-1H-pyrazol-3-yl]-2-[6-oxo-4-(3-trifluoromethyl-benzyl)-6H-pyridazin-1-yl]-propionamide] are within 1.5-fold of each other in “SC1.5 average (concentration of activator that produced a 50% increase in the activity of GK)” value: 1.947 µM for the first, 1.366 µM for the second.

First: CC(C)(O)Cn1ccc(NC(=O)C(CC2CCCC2)n2ncc(Cc3c(F)cccc3F)cc2=O)n1 (stereo not shown) [Example 48, 3-Cyclopentyl-2-[4-(2,6-difluoro-benzyl)-6-oxo-6H-pyridazin-1-yl]-N-[1-(2-hydroxy-2-methyl-propyl)-1H-pyrazol-3-yl]-propionamide]
Second: CC(C)(O)Cn1ccc(NC(=O)C(CC2CCCCC2)n2ncc(Oc3c(F)cccc3F)cc2=O)n1 (stereo not shown) [Example 51, 3-Cyclohexyl-2-[4-(2,6-difluoro-phenoxy)-6-oxo-6H-pyridazin-1-yl]-N-[1-(2-hydroxy-2-methyl-propyl)-1H-pyrazol-3-yl]-propionamide]
The “SC1.5 average (concentration of activator that produced a 50% increase in the activity of GK)” value of the first is 17-fold higher: 1.495 µM for the first, 0.087 µM for the second.

Compared with CC(C)(O)Cn1ccc(NC(=O)[C@H](CC2CCCCC2)n2ncc(Oc3c(F)cccc3F)cc2=O)n1 [Example 51A, (S)-3-Cyclohexyl-2-[4-(2,6-difluoro-phenoxy)-6-oxo-6H-pyridazin-1-yl]-N-[1-(2-hydroxy-2-methyl-propyl)-1H-pyrazol-3-yl]-propionamide], CC(C)(O)Cn1ccc(NC(=O)[C@@H](CC2CCCCC2)n2ncc(Oc3c(F)cccc3F)cc2=O)n1 [Example 51B, (R)-3-Cyclohexyl-2-[4-(2,6-difluoro-phenoxy)-6-oxo-6H-pyridazin-1-yl]-N-[1-(2-hydroxy-2-methyl-propyl)-1H-pyrazol-3-yl]-propionamide] is 22-fold higher in “SC1.5 average (concentration of activator that produced a 50% increase in the activity of GK)” value: 0.038 µM for the first, 0.838 µM for the second.

O=C(Nc1ccn(CCO)n1)C(CC1CCOCC1)n1ncc(Oc2c(F)cccc2F)cc1=O (stereo not shown) [Example 53, 2-[4-(2,6-Difluoro-phenoxy)-6-oxo-6H-pyridazin-1-yl]-N-[1-(2-hydroxy-ethyl)-1H-pyrazol-3-yl]-3-(tetrahydro-pyran-4-yl)-propionamide] and O=C(Nc1ccn(CCO)n1)C(CC1CCC1)n1ncc(Oc2c(F)cccc2F)cc1=O (stereo not shown) [Example 55, 3-Cyclobutyl-2-[4-(2,6-difluoro-phenoxy)-6-oxo-6H-pyridazin-1-yl]-N-[1-(2-hydroxy-ethyl)-1H-pyrazol-3-yl]-propionamide] are within 1.5-fold of each other in “SC1.5 average (concentration of activator that produced a 50% increase in the activity of GK)” value: 0.469 µM for the first, 0.468 µM for the second.

In the case of CCC(CC)CC(C(=O)Nc1ccn(CCO)n1)n1ncc(Oc2c(F)cccc2F)cc1=O (stereo not shown) [Example 54, 2-[4-(2,6-Difluoro-phenoxy)-6-oxo-6H-pyridazin-1-yl]-4-ethyl-hexanoic acid [1-(2-hydroxy-ethyl)-1H-pyrazol-3-yl]-amide], the “SC1.5 average (concentration of activator that produced a 50% increase in the activity of GK)” value is reported as 0.544 µM.

With Cn1nc(NC(=O)C(CC2CCCC2)n2ncc(Oc3ccccc3C(F)(F)F)cc2=O)cc1C(F)(F)F (stereo not shown) [Example 45, 3-Cyclopentyl-N-(1-methyl-5-trifluoromethyl-1H-pyrazol-3-yl)-2-[6-oxo-4-(2-trifluoromethyl-phenoxy)-6H-pyridazin-1-yl]-propionamide] the “SC1.5 average (concentration of activator that produced a 50% increase in the activity of GK)” value was over 30 µM.

From patent US8258134B2, “Pyridazinone glucokinase activators” (Hoffmann-La Roche Inc., priority 2008, dated 2012)
